Assay results from patent US12329753B2, “Phosphodiesterase inhibitor treatment” (Cyrano Therapeutics, Inc., priority 2008, dated 2025).
Marks after values point to notes of the source that are not given here.

Tested on: patients with hyposmia
Test: Smell function tests (DT, RT, ME), forced-choice three-stimuli stepwise-staircase technique, open trial of oral theophylline
Format: in vivo, human
Conditions: for detection threshold (DT), amyl acetate / detection threshold (DT), nitrobenzene / detection threshold (DT), pyridine / detection threshold (DT), thiophene / magnitude estimation (ME), amyl acetate / magnitude estimation (ME), nitrobenzene / magnitude estimation (ME), pyridine / magnitude estimation (ME), thiophene / recognition threshold (RT), amyl acetate / recognition threshold (RT), nitrobenzene / recognition threshold (RT), pyridine / recognition threshold (RT), thiophene: mean ± SEM
From the text: Patients initially reported their sensory dysfunction as either loss of taste (i.e., flavor) and/or smell function. This subjective response was documented by objective psychophysical measurements of olfactory function administered to each patient by use of a forced-choice, three-stimuli, stepwise-staircase technique in a fixed, controlled design (1, 53). Efficacy of this technique and results of testing were previously documented in a double-blind clinical trial (53). Four odors were used; they were pyridine (dead-fish odor), nitrobenzene (bitter-almond odor), thiophene (petroleum-like odor) and amyl acetate (banana-oil odor). Detection thresholds (DT), recognition thresholds (RT) and magnitude estimation (ME) values for each odor were determined as previously described (1, 53). Thresholds were converted into bottle units (BU) as previously described (53) and results reported as M±SEM of correct responses for each odor in each treatment group; ME was reported in % and results calculated to obtain M±SEM for each treatment group for all correct responses using data for the four highest odor concentrations presented (from 10^−2M—an absolute odor concentration).
After determination of hyposmia, patients were treated in an open label, fixed design, controlled open trial. Patients were given an oral extended release theophylline in divided daily doses taken in the middle of breakfast and lunch. All patients were initially given 200 mg of theophylline; changes in this dose were made based upon subjective responses to therapy. If at a subsequent return visit, patients reported ≥5% subjective improvement in overall smell function, they continued on this same dose of theophylline and were reevaluated after four to six months of continued treatment. Results from any subsequent return from these improved patients were not included in any subsequent data report. All subsequent comparisons between treated and untreated patients were made only between those patients continuing in the study compared to their own measurements obtained in the untreated state. If patients reported <5% subjective improvement, their theophylline dose was increased by 200 mg daily and they were scheduled for retesting at the study site after two to four months at this new dosage. For patients that reported <5% improvement, this sequence continued until patients reached 800 mg of theophylline, at which time the study was considered completed.
Patients returned for reevaluation after two to four months of treatment. Measurements of blood serum theophylline were measured by a fluorescence polarization assay (Abbott, Chicago, IL). At this time, subjective changes in smell function were measured independently (compared to patient's memory of previous normal smell function monitored by use of the patients' daily measurements) using the scale from −100-0-+100 previously described (vs). After independently recording their subjective responses, smell function was measured for all four odors with DT, RT, ME and H determined without recourse to prior measurements.
Since data for all measurements from each patient group (local or distant) on each dose level were combined mean and SEM for each measurement (DT, RT, ME, H) of smell function for each treatment group were calculated on this basis. Differences in measurements between before treatment and each treatment level were calculated and significance of differences estimated using Student t tests (values p<0.05 considered significant). Some patient responses were also analyzed by use of non-parametric statistics (sign test) and the Spearman rank correlation technique; […] was considered significant related to smell loss type and treatment response. Since each patient served as his/her own control with respect to before and after treatment, paired t tests were also calculated; […] were considered significant. These values were not included in the results presented.

[1] = oral 200 mg daily, 2-6 months, all patients (199)
[2] = oral 200 mg, Type I hyposmia (57)
[3] = oral 400 mg daily, 2-6 months, all patients (120)
[4] = oral 400 mg, Type I hyposmia (33)
[5] = oral 600 mg daily, 2-12 months, all patients (160)
[6] = oral 600 mg, Type I hyposmia (51)
[7] = oral 800 mg daily, 2-12 months, all patients (28)
[8] = oral 800 mg, Type I hyposmia (12)

Cn1c(=O)c2[nH]cnc2n(C)c1=O [theophylline]
detection threshold (DT), amyl acetate [1]: 7.9 ± 0.2^c BU
detection threshold (DT), nitrobenzene [1]: 7.8 ± 0.2^d BU
detection threshold (DT), pyridine [1]: 7.6 ± 0.2^a BU
detection threshold (DT), thiophene [1]: 7.5 ± 0.2^c BU
magnitude estimation (ME), amyl acetate [1]: 15 ± 2^d %
magnitude estimation (ME), nitrobenzene [1]: 17 ± 2^ %
magnitude estimation (ME), pyridine [1]: 28 ± 2^a %
magnitude estimation (ME), thiophene [1]: 21 ± 2^ %
recognition threshold (RT), amyl acetate [1]: 9.9 ± 0.2^c BU
recognition threshold (RT), nitrobenzene [1]: 9.5 ± 0.2^a BU
recognition threshold (RT), pyridine [1]: 9.0 ± 0.2^a BU
recognition threshold (RT), thiophene [1]: 9.1 ± 0.2^c BU
detection threshold (DT), amyl acetate [2]: 10.5 ± 0.3^d BU
detection threshold (DT), nitrobenzene [2]: 10.3 ± 0.3^a BU
detection threshold (DT), pyridine [2]: 9.5 ± 0.2 BU
detection threshold (DT), thiophene [2]: 10.1 ± 0.3^d BU
recognition threshold (RT), amyl acetate [2]: 11.3 ± 0.2^ BU
recognition threshold (RT), nitrobenzene [2]: 11.2 ± 0.2^d BU
recognition threshold (RT), thiophene [2]: 11.4 ± 0.2^ BU
total mean increase in ME, all odors (oral 400 mg): 10.4%
detection threshold (DT), amyl acetate [3]: 7.1 ± 0.3^b BET
detection threshold (DT), nitrobenzene [3]: 7.2 ± 0.3^c BET
detection threshold (DT), pyridine [3]: 7.0 ± 0.3^c BET
detection threshold (DT), thiophene [3]: 6.8 ± 0.4^c BET
magnitude estimation (ME), amyl acetate [3]: 18 ± 2^c %
magnitude estimation (ME), nitrobenzene [3]: 23 ± 2^a %
magnitude estimation (ME), thiophene [3]: 26 ± 2^c %
recognition threshold (RT), nitrobenzene [3]: 8.9 ± 0.3^b BU
recognition threshold (RT), pyridine [3]: 8.5 ± 0.3^a BU
recognition threshold (RT), thiophene [3]: 8.4 ± 0.3^a BU
detection threshold (DT), amyl acetate [4]: 10.1 ± 0.5^a BU
detection threshold (DT), pyridine [4]: 8.8 ± 0.5 BU
recognition threshold (RT), amyl acetate [4]: 11.2 ± 0.3^ BU
recognition threshold (RT), nitrobenzene [4]: 10.9 ± 0.4^e BU
recognition threshold (RT), thiophene [4]: 10.8 ± 0.4^d BU
detection threshold (DT), amyl acetate [5]: 7.8 ± 0.3^a BET
detection threshold (DT), nitrobenzene [5]: 7.8 ± 0.3^a BET
detection threshold (DT), pyridine [5]: 7.4 ± 0.2^c BET
detection threshold (DT), thiophene [5]: 7.1 ± 0.3^a BET
magnitude estimation (ME), amyl acetate [5]: 15 ± 2^c %
magnitude estimation (ME), nitrobenzene [5]: 18 ± 2^d %
magnitude estimation (ME), pyridine [5]: 26 ± 2^d %
magnitude estimation (ME), thiophene [5]: 21 ± 2^d %
recognition threshold (RT), amyl acetate [5]: 9.6 ± 0.2^a BU
recognition threshold (RT), nitrobenzene [5]: 9.1 ± 0.2^c BU
recognition threshold (RT), pyridine [5]: 9.4 ± 0.2^c BU
recognition threshold (RT), thiophene [5]: 9.0 ± 0.3^c BU
detection threshold (DT), amyl acetate [6]: 10.1 ± 0.3^a BU
recognition threshold (RT), amyl acetate [6]: 11.1 ± 0.2^c BU
recognition threshold (RT), nitrobenzene [6]: 10.8 ± 0.3^e BU
recognition threshold (RT), pyridine [6]: 10.9 ± 0.3 BU
recognition threshold (RT), thiophene [6]: 10.9 ± 0.3^b BU
detection threshold (DT), amyl acetate [7]: 7.2 ± 0.8 BU
detection threshold (DT), nitrobenzene [7]: 7.0 ± 0.8^d BU
detection threshold (DT), thiophene [7]: 7.2 ± 0.7 BU
magnitude estimation (ME), amyl acetate [7]: 24 ± 2^a %
magnitude estimation (ME), nitrobenzene [7]: 25 ± 6 ^ %
magnitude estimation (ME), pyridine [7]: 29 ± 5%
magnitude estimation (ME), thiophene [7]: 20 ± 4%
recognition threshold (RT), amyl acetate [7]: 9.0 ± 0.5^b BU
recognition threshold (RT), nitrobenzene [7]: 7.8 ± 0.8^d BU
recognition threshold (RT), pyridine [7]: 8.5 ± 0.6^c BU
recognition threshold (RT), thiophene [7]: 9.6 ± 0.6 BU
detection threshold (DT), amyl acetate [8]: 10.6 ± 0.5^ BU
detection threshold (DT), nitrobenzene [8]: 10.1 ± 0.8^ BU
detection threshold (DT), pyridine [8]: 9.6 ± 0.8 BU
recognition threshold (RT), amyl acetate [8]: 11.6 ± 0.4^ BU
recognition threshold (RT), nitrobenzene [8]: 11.3 ± 0.7^ BU
recognition threshold (RT), pyridine [8]: 10.3 ± 1.0 BU
recognition threshold (RT), thiophene [8]: 11.6 ± 0.2^ BU
